Columns and labels:
Experiment in all cases: biochemical
Parameters in all cases: Safety pharmacology off-target panel at Eurofins, radioligand binding with agonist or antagonist radioligand (Supplementary Table 2)
A2A (h) = target: T1, A2A (h) (Homo sapiens, UniProt P29274); details: agonist radioligand
T1 construct: gene ADORA2A
Procedure: (§1) Wide-range phosphatase, kinase and preclinical safety pharmacology off-target activity screens were conducted at Eurofins (Extended Data Table 5 and Supplementary Tables 1 and 2). A small phosphatase panel was developed at AbbVie to assess IC50 values on select phosphatases. The following enzymes used in the phosphatase selectivity panel were purchased from Eurofins: PTPN1 (PTP1B; 14–621), PTPN2 (TC-PTP; 14–646), PTPN9 (14–592), SHP1 (14–591) and SHP2 (14–622). The catalytic activity of the phosphatase was monitored using the small-molecule substrate DiFMUP (ThermoFisher) in a fluorescence assay format. In brief, the phosphatase reactions were performed at room temperature in the following assay buffer: 50 mM HEPES, pH 7.2, 100 mM NaCl, 1 mM EDTA, 0.005% Tween-20 and 5 mM TCEP. Each phosphatase was incubated with increasing concentrations of AC484 for 5 min, after which the substrate DiFMUP was added and incubated at 25 °C for 30 min. The final concentration of the enzyme and substrate was maintained at 0.5 nM and 5 μM, respectively, in all the assays. The reaction was then quenched by the addition of a 100 μM solution of bpV(Phen) (Enzo Life Sciences). The fluorescence signal was monitored using an Envision microplate reader (Perkin-Elmer) using excitation and emission wavelengths of 340 nm and 450 nm, respectively. The dose–response curves for the inhibitors were analysed using normalized IC50 regression curve fitting with control-based normalization. Supplementary file 41586_2023_6575_MOESM4_ESM.xlsx: Supplementary Table 2 AC484 receptor selectivity screen.

b2 (h) = target: T2, b2 (h) (Homo sapiens, UniProt P07550); details: antagonist radioligand
T2 construct: gene ADRB2
Procedure: as §1

5-HT4e = target: T3, 5-HT4e (Homo sapiens, UniProt Q13639); details: antagonist radioligand
T3 construct: gene HTR4; 5-HT4e isoform
Procedure: as §1

D2S = target: T4, D2S (Homo sapiens, UniProt P14416); details: antagonist radioligand
T4 construct: gene DRD2; D2S short isoform
Procedure: as §1

PPARg = PPARg (Homo sapiens, UniProt P37231); details: agonist radioligand
Procedure: as §1

CGRP = target: T5, CGRP (Homo sapiens, UniProt O60894+Q16602); details: agonist radioligand
T5 construct: gene RAMP1
Procedure: as §1

A2B (h) = target: T6, A2B (h) (Homo sapiens, UniProt P29275); details: antagonist radioligand
T6 construct: gene ADORA2B
Procedure: as §1

EP2 = target: T7, EP2 (Homo sapiens, UniProt P43116); details: agonist radioligand
T7 construct: gene PTGER2
Procedure: as §1

AR = AR (Homo sapiens, UniProt P10275); details: agonist radioligand
Procedure: as §1

a1A (h) = target: T8, a1A (h) (Homo sapiens, UniProt P35348); details: antagonist radioligand
T8 construct: gene ADRA1A
Procedure: as §1

5-HT2A = target: T9, 5-HT2A (Homo sapiens, UniProt P28223); details: antagonist radioligand
T9 construct: gene HTR2A
Procedure: as §1

Y1 = target: T10, Y1 (Homo sapiens, UniProt P25929); details: agonist radioligand
T10 construct: gene NPY1R
Procedure: as §1

GABAA1 (a1.b2.g2) = target: T11, GABAA1 (a1.b2.g2) (Homo sapiens, UniProt P14867+P18507+P47870); details: agonist radioligand
T11 construct: gene GABRA1; a1.b2.g2
Procedure: as §1

NK2 = target: T12, NK2 (Homo sapiens, UniProt P21452); details: agonist radioligand
T12 construct: gene TACR2
Procedure: as §1

M4 = target: T13, M4 (Homo sapiens, UniProt P08173); details: antagonist radioligand
T13 construct: gene CHRM4
Procedure: as §1

NK1 = target: T14, NK1 (Homo sapiens, UniProt P25103); details: agonist radioligand
T14 construct: gene TACR1
Procedure: as §1

H2 = target: T15, H2 (Homo sapiens, UniProt P25021); details: antagonist radioligand
T15 construct: gene HRH2
Procedure: as §1

CB2 = target: T16, CB2 (Homo sapiens, UniProt P34972); details: agonist radioligand
T16 construct: gene CNR2
Procedure: as §1

V1a = target: T17, V1a (Homo sapiens, UniProt P37288); details: agonist radioligand
T17 construct: gene AVPR1A
Procedure: as §1

Measured: AC50

T8 sequence (P35348 whole entry): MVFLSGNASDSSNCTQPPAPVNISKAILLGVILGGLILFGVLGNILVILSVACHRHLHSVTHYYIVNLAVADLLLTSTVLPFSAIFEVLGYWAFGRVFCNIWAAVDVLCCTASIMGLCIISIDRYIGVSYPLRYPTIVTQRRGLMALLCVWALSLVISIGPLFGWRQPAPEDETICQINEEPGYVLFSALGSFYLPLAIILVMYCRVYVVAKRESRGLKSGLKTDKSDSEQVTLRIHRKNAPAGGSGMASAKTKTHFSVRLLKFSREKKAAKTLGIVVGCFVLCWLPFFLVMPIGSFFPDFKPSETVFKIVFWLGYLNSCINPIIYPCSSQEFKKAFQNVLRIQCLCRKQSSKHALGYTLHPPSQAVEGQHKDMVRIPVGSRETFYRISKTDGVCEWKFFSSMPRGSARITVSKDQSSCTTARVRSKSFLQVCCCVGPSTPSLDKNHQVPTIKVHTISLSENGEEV
T12 sequence (P21452 whole entry): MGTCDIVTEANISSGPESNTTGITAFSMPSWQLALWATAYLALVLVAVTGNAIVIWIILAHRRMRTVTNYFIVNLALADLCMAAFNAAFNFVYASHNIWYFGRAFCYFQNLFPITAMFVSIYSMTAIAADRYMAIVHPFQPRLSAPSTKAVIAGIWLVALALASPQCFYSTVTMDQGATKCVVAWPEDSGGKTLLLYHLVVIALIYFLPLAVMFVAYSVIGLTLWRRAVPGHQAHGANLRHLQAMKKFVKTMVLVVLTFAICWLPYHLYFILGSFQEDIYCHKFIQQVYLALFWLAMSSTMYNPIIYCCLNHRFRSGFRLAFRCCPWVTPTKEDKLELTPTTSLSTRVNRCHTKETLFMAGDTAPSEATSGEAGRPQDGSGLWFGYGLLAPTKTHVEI
T2 sequence (P07550 whole entry): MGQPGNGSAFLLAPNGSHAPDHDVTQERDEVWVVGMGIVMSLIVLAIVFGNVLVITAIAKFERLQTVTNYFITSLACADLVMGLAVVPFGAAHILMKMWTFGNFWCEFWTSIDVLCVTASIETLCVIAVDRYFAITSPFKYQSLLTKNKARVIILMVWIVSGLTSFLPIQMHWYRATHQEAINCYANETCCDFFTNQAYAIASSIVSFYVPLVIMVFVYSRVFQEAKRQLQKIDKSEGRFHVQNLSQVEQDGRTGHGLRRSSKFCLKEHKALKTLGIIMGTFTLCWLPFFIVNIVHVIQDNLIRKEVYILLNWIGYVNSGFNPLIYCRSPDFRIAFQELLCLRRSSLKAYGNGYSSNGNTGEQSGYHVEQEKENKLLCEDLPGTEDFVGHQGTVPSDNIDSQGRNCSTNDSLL
T4 sequence (P14416 whole entry, canonical isoform): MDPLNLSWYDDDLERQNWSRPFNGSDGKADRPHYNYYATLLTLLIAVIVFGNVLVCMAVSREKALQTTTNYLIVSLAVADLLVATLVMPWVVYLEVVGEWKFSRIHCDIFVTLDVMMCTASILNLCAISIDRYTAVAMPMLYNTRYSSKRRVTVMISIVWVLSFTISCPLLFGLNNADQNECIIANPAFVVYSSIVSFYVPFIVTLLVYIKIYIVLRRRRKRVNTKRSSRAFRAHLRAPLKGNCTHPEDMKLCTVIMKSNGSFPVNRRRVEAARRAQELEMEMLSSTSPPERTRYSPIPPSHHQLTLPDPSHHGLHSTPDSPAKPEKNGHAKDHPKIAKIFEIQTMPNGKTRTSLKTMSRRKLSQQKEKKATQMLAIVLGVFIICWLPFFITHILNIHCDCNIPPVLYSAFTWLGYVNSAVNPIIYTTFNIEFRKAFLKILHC
T11 sequence (P14867 whole entry): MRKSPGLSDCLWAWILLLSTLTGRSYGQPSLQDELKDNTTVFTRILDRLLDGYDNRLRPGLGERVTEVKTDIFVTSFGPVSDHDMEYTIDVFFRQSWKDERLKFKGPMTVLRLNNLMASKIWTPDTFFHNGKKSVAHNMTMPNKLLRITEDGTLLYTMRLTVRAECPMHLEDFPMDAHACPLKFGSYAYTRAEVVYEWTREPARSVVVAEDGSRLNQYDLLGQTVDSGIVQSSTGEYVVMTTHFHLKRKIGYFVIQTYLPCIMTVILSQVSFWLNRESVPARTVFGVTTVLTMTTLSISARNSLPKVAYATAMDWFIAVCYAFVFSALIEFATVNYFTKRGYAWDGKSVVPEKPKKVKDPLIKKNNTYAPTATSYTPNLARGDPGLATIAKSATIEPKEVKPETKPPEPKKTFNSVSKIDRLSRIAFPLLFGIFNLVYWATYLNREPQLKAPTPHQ
T11 sequence (P18507 whole entry): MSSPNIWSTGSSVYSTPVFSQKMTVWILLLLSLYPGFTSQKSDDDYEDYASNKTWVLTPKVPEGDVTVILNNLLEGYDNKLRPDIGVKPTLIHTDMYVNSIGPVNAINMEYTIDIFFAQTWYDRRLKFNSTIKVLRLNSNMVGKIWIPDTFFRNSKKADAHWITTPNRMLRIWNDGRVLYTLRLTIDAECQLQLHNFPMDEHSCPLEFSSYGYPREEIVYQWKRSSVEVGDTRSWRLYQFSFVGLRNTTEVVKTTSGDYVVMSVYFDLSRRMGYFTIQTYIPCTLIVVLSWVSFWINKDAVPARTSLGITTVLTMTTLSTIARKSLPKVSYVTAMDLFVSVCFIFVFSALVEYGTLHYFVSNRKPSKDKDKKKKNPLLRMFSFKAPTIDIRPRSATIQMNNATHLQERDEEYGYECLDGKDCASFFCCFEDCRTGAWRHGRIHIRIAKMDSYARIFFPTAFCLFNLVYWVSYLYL
T11 sequence (P47870 whole entry): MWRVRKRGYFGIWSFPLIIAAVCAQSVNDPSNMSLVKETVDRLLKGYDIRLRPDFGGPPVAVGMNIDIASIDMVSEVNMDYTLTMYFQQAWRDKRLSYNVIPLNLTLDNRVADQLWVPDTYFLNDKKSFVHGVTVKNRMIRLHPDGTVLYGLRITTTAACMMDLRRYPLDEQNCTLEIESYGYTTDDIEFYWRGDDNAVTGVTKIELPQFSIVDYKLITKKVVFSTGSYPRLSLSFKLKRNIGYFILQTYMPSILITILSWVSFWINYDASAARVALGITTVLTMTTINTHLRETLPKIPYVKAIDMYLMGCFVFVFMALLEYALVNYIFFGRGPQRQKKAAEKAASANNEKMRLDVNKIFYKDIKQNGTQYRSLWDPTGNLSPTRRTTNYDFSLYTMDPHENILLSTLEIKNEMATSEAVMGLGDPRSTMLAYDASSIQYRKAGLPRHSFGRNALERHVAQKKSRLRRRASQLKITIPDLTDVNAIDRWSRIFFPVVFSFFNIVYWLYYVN
T5 sequence (O60894 whole entry): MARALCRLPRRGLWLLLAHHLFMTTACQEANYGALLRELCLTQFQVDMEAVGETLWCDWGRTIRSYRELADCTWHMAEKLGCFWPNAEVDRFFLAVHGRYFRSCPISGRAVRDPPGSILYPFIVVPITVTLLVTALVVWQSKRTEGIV
T5 sequence (Q16602 whole entry): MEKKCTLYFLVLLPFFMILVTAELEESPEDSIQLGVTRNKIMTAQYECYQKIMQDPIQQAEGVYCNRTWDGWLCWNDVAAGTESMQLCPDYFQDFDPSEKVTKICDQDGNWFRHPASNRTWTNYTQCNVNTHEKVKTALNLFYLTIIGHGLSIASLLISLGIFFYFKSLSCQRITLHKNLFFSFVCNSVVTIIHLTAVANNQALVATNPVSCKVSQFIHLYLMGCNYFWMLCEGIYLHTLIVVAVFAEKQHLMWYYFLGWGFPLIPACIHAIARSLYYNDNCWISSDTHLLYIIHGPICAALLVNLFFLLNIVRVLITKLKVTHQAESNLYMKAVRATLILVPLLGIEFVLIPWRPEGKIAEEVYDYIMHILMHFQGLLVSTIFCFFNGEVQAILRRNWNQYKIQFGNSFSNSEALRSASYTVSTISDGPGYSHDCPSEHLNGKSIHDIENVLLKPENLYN
T14 sequence (P25103 whole entry): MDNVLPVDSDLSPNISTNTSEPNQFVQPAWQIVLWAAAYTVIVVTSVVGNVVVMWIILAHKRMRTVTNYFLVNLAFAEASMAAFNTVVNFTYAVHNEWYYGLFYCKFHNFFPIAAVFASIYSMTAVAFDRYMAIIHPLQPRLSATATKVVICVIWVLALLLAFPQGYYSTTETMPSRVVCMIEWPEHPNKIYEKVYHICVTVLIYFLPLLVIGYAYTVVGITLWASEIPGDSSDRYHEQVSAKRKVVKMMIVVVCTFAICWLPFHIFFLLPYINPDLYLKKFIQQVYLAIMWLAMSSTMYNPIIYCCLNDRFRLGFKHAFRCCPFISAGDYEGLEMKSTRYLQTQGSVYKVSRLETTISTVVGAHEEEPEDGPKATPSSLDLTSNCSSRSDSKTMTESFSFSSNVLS
T9 sequence (P28223 whole entry): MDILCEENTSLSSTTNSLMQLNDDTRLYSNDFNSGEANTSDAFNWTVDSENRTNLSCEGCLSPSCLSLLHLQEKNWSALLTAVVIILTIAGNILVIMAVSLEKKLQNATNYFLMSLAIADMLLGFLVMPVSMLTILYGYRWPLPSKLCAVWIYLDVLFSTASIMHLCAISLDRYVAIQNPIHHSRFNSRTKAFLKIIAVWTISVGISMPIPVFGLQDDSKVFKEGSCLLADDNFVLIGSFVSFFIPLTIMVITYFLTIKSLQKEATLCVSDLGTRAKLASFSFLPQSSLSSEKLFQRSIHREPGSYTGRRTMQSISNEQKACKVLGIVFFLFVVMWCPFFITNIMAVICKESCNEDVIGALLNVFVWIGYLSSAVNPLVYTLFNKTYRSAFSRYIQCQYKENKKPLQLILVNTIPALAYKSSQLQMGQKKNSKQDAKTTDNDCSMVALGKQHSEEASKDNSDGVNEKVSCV

CC(C)CCN[C@@H]1CCc2cc(O)c(N3CC(=O)NS3(=O)=O)c(F)c2C1 [AC484, ABBV-CLS-484]
> 0.01 mM: all assays above

— publication PMC10599993, “The PTPN2/PTPN1 inhibitor ABBV-CLS-484 unleashes potent anti-tumour immunity” (Nature, 2023)
